Our source for the % of control, % of inhibition and % of activity values is ChEMBL document CHEMBL5465560, “Selectivity Literature for EUbOPEN Chemogenomic Library” (2024).

Test [1] concerns the target Ephrin type-A receptor 7 (Homo sapiens) (UniProt Q15375). Kind of test: Selectivity interaction (Ambit KINOMEscan and KiNATiv profiling in Jurkat cells) EUB0000090b EPHA7. The test is classed as cell-based. As to conditions: at 1 µM.
Test [2] addresses Receptor-type tyrosine-protein kinase FLT3 (Homo sapiens) (UniProt P36888). Kind of test: Selectivity interaction (Ambit KINOMEscan and KiNATiv profiling in Jurkat cells) EUB0000090b FLT3. Type of test: cell-based. The note with it: at 1 µM.
Test [3] has as its target Receptor tyrosine-protein kinase erbB-4 (Homo sapiens, UniProt Q15303). Description: Selectivity interaction (KinomeScan (DiscoverX)) EUB0001079a ERBB4. The note with it: at 1 µM.
In test [4] the target is T1, Serine/threonine-protein kinase Sgk3 (Homo sapiens) (UniProt Q96BR1).
T1 sequence (whole entry): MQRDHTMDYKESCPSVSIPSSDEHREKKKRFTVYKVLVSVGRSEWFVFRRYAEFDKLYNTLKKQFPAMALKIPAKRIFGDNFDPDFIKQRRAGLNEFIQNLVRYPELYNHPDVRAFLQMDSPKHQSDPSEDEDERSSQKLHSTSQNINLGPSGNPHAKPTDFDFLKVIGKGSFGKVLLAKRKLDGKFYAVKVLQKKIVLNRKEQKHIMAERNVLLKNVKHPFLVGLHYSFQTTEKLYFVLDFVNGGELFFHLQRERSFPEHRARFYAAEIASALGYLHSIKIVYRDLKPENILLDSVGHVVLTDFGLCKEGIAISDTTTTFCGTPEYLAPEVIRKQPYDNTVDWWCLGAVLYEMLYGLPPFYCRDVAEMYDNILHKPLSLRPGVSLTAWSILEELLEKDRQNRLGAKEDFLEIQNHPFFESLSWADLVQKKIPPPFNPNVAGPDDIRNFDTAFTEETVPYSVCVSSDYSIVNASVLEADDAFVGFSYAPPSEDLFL
Kind of test: Selectivity interaction (KinomeScan (DiscoverX)) EUB0001079a SGK3. The note with it: at 1 µM.

The target in test [5] is Serine/threonine-protein kinase 26 (Homo sapiens, UniProt Q9P289). Kind of test: Selectivity interaction (KinomeScan (DiscoverX)) EUB0000695a STK26. As to conditions: at 100 nM.
The target in test [6] is Insulin-like growth factor 1 receptor (Homo sapiens, UniProt P08069). Description: Selectivity interaction (Kinase screening (Nanosyn)) EUB0000604a IGF1R.
The target of test [7] is Protein arginine N-methyltransferase 8 (Homo sapiens, UniProt Q9NR22). Description: Selectivity interaction (Methyltransferase screen (radiometric assays, panel of 8 PRMTs, 21 protein lysine methyltransferases, 3 DNA methyltransferases, and one RNA methyltransferase)) EUB0000271b PRMT8.
Test [8] deals with Serine/threonine-protein kinase VRK2 (Homo sapiens) (UniProt Q86Y07). Kind of test: Selectivity interaction (KinomeScan (DiscoverX)) EUB0000607a VRK2. The note with it: at 10 µM.
In test [9] the target is T2, Serine/threonine-protein kinase PLK4 (Homo sapiens) (UniProt O00444).
T2 sequence (whole entry): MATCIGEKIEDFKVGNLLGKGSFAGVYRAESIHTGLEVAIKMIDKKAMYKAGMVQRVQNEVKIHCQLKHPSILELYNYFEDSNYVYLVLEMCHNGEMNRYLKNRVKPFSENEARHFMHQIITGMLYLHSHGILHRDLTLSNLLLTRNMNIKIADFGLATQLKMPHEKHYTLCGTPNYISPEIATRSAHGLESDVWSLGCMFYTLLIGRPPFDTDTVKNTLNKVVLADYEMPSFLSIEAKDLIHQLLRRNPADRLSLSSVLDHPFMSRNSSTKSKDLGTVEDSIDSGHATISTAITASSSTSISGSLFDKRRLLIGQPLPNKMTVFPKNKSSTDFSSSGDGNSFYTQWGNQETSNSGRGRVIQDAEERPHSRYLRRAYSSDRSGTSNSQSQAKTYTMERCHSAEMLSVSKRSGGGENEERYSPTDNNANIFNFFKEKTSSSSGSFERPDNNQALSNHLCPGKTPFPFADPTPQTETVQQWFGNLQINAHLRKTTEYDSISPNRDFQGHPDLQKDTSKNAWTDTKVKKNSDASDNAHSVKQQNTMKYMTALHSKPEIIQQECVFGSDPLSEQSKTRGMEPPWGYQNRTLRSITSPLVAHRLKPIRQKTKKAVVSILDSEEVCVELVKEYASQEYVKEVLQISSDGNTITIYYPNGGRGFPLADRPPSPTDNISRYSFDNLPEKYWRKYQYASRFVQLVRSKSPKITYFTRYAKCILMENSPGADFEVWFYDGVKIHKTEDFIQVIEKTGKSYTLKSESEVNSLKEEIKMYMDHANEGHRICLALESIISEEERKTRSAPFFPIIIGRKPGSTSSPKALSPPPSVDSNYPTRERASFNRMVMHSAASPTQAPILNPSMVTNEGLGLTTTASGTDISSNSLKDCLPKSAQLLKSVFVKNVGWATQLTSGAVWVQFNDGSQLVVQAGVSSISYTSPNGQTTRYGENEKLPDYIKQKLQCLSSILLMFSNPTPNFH
Description: Selectivity interaction (KinomeScan (DiscoverX)) EUB0000595a PLK4. As to conditions: at 10 µM.

The target of test [10] is Calcium/calmodulin-dependent protein kinase type II subunit beta (Homo sapiens) (UniProt Q13554). Kind of test: Selectivity interaction (KinomeScan (DiscoverX)) EUB0000595a CAMK2B. As to conditions: at 10 µM.
For test [11], the target named is Ribosomal protein S6 kinase alpha-6 (Homo sapiens, UniProt Q9UK32). Kind of test: Selectivity interaction (KinomeScan (DiscoverX)) EUB0000595a RPS6KA6. As to conditions: at 10 µM.
Test [12] addresses T3, Casein kinase I isoform alpha-like (Homo sapiens) (UniProt Q8N752).
T3 sequence (whole entry): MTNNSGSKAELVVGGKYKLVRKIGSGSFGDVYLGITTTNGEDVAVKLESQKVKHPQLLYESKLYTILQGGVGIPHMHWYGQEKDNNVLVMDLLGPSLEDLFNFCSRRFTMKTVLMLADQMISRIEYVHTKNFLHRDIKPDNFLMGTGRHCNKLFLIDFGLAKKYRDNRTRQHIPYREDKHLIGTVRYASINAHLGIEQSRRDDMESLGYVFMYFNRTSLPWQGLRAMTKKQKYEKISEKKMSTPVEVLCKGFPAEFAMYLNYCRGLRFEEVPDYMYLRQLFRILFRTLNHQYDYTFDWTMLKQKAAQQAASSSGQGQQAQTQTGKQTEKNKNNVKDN
Kind of test: Selectivity interaction (KinomeScan (DiscoverX)) EUB0001619a CSNK1A1L. The note with it: at 1 µM.

Chain of Protein arginine N-methyltransferase 8 (Q9NR22 2-394 limits assumed): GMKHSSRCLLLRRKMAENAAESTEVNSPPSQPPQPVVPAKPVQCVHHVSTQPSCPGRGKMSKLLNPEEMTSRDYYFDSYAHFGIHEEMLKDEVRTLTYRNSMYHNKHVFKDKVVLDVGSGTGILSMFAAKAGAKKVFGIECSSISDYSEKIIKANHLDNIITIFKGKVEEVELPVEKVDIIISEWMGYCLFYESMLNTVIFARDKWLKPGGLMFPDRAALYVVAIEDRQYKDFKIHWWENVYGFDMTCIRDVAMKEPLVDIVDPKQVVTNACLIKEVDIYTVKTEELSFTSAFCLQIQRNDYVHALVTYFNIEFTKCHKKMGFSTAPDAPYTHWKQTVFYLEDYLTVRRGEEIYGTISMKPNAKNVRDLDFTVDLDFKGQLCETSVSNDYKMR
Chain of Serine/threonine-protein kinase VRK2 (Homo sapiens) (Q86Y07 whole entry): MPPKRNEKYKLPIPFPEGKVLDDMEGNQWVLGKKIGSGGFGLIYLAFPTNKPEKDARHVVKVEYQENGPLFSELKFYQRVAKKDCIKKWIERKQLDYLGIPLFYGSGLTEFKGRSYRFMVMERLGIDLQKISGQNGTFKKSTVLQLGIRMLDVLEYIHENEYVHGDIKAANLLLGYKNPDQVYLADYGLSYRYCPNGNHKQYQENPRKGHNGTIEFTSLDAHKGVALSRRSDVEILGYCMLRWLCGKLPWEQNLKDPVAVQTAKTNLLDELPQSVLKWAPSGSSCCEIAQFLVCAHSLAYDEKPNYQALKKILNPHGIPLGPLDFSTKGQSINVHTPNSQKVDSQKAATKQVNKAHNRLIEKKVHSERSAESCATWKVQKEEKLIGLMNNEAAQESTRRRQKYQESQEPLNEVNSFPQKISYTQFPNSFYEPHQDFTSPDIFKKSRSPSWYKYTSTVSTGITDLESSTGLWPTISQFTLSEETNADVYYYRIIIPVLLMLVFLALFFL
Chain of Serine/threonine-protein kinase 26 (Q9P289 2-416 limits assumed): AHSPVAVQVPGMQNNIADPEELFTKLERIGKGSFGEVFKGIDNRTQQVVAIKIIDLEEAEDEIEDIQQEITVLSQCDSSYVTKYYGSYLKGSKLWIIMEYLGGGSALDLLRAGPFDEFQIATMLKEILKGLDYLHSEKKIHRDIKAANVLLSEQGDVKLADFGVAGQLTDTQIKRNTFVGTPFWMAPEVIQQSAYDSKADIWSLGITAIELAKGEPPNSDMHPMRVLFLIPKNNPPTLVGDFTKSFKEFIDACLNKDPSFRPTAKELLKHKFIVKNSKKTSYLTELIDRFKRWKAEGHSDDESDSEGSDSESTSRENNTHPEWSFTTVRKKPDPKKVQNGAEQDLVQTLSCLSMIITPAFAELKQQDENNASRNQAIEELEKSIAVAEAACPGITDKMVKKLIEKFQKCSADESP
Chain of Calcium/calmodulin-dependent protein kinase type II subunit beta (Homo sapiens) (Q13554 whole entry): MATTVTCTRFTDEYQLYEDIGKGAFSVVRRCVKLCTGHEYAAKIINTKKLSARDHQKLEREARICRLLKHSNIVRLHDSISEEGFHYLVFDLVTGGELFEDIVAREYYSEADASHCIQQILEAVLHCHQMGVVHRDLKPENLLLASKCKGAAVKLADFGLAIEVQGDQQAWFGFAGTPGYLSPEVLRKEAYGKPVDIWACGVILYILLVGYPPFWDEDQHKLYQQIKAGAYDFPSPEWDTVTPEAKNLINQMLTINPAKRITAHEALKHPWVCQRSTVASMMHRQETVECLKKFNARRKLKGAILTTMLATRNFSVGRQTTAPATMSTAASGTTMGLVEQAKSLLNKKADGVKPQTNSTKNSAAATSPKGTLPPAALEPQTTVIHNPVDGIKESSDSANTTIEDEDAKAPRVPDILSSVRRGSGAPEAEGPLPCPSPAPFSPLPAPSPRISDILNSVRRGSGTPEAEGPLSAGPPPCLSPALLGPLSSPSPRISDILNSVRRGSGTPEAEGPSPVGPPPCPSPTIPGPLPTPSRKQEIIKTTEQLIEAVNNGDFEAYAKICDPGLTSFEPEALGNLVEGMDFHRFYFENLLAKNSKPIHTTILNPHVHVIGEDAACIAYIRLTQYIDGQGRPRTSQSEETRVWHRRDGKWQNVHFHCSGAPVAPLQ
Chain of Receptor-type tyrosine-protein kinase FLT3 (Homo sapiens) (P36888 whole entry): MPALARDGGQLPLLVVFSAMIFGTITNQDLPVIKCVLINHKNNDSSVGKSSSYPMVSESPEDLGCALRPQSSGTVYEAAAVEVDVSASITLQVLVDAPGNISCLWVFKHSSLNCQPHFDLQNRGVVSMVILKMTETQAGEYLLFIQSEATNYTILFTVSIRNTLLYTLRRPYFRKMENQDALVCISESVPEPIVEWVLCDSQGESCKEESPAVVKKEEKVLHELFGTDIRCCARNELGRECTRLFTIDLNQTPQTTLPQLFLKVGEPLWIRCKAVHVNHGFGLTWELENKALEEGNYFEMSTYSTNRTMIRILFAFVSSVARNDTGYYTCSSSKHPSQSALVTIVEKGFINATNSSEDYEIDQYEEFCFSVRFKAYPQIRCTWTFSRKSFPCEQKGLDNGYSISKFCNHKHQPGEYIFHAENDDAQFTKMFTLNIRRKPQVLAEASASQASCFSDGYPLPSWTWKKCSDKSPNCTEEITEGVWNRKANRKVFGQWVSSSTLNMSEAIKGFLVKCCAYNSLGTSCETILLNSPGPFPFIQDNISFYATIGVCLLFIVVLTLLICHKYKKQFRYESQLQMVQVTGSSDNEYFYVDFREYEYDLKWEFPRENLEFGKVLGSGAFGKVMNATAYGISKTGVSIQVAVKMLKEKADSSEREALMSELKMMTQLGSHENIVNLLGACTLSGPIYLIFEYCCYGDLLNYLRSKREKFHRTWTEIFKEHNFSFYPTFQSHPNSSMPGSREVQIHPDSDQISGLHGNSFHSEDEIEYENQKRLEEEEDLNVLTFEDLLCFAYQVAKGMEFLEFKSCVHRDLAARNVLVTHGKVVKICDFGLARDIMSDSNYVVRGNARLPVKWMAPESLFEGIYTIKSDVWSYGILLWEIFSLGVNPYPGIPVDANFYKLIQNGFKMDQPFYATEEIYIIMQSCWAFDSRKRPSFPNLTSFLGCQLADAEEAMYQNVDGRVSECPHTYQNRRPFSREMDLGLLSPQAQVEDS
Chain of Ephrin type-A receptor 7 (Homo sapiens) (Q15375 28-998 limits assumed): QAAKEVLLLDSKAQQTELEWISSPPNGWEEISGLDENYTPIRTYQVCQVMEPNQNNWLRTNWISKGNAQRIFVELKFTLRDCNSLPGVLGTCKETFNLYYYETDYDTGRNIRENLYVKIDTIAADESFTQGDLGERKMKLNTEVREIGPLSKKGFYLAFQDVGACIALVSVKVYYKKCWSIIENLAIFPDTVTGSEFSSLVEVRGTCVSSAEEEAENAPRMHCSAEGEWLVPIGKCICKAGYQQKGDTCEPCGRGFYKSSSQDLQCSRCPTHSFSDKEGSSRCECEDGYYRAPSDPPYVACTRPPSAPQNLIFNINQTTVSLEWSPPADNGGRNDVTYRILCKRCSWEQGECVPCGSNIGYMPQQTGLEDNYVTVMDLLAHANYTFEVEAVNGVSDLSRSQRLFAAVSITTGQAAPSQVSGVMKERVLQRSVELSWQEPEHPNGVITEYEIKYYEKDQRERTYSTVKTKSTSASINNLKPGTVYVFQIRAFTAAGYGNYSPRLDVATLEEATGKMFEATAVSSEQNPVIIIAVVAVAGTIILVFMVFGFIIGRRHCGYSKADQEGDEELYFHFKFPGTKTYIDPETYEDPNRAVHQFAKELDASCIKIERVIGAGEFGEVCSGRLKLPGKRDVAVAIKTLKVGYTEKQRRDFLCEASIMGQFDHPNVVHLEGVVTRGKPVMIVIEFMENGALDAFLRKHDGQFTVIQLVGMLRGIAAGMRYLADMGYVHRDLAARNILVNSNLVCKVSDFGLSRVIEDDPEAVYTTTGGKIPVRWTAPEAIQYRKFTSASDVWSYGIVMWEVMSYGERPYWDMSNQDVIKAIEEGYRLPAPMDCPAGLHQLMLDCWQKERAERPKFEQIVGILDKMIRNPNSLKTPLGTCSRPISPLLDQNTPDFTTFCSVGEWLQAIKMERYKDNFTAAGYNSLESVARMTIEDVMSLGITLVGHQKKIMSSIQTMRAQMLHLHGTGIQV
Chain of Ribosomal protein S6 kinase alpha-6 (Q9UK32 whole entry, canonical isoform): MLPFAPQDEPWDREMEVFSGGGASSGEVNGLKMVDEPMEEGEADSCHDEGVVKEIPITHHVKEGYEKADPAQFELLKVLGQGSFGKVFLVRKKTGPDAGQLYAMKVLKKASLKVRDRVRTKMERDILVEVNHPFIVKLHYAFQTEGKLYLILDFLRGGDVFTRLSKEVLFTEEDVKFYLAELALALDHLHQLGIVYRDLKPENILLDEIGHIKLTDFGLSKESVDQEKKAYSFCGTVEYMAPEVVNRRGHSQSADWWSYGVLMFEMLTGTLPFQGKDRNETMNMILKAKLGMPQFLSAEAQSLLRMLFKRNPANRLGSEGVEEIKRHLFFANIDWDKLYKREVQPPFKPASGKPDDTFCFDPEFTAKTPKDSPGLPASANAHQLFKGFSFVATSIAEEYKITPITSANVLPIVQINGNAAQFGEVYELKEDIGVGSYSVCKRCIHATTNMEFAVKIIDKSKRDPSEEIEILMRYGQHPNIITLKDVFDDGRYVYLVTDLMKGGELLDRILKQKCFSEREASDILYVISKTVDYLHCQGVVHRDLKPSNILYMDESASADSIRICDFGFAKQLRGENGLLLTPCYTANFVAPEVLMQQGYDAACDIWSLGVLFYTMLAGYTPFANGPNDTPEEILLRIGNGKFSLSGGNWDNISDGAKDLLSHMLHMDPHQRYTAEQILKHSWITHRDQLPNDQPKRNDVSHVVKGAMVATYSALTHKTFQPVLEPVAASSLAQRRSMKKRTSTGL

For `CN(C)C/C=C/C(=O)Nc1ccc(C(=O)N2CCCC(Nc3ncc(Cl)c(-c4c[nH]c5ccccc45)n3)C2)cc1` (stereo not drawn), the % of control was determined as 93% in test [1] and 95% in test [2]. `Nc1cnc(N2CCc3cc(S(=O)(=O)Nc4c(F)cc(Cl)cc4F)cc(N4CCCC4=O)c32)nc1` [TP-020n]: the % of control in test [3] and in test [4] was 100% each time. `Cc1cc(F)c(C(=O)Nc2cccc(-c3nncn3C(C)C)n2)cc1-n1cnc(C2CC2)c1` showed a % of control in test [5] of 100%. In turn, `Cc1cnc(Nc2ccc(F)cc2Cl)nc1-c1c[nH]c(C(=O)N[C@H](CO)c2cccc(Cl)c2)c1` gave a % of inhibition in test [6] of 2%. With `Cc1cc(C)cc([C@@H]2c3cc(C)ccc3NC(=O)CN2C(=O)c2ccc(Br)s2)c1`, the % of activity amounted to 101% in test [7] (at 1 µM) and 96% in [7] (at 10 µM). In test [8], `CNC(=O)Nc1ccc(-c2nc(N3CC4CCC(C3)O4)c3cnn(C4CCC5(CC4)OCCO5)c3n2)cc1` returned a % of control of 100%.

In the case of `COCC(=O)NC/C=C/c1ccc2ncnc(Nc3ccc(Oc4ccc(C)nc4)c(C)c3)c2c1` [CP-724714], the % of control turned out to be 74% in test [9], 88% in [10] and 96% in test [11].

In [12], `N#Cc1cccc(-c2c[nH]c3ncnc(N4CCOCC4)c23)c1` had a % of control of 96%.
